For six molecules, IC50 results are on record in patent US6710048B2, “Pyrazine derivatives as modulators of tyrosine kinases” (Ortho-McNeil Pharmaceutical, Inc., priority 2000, dated 2004).

HER2, sequence (P04626 23-1255, species assumed): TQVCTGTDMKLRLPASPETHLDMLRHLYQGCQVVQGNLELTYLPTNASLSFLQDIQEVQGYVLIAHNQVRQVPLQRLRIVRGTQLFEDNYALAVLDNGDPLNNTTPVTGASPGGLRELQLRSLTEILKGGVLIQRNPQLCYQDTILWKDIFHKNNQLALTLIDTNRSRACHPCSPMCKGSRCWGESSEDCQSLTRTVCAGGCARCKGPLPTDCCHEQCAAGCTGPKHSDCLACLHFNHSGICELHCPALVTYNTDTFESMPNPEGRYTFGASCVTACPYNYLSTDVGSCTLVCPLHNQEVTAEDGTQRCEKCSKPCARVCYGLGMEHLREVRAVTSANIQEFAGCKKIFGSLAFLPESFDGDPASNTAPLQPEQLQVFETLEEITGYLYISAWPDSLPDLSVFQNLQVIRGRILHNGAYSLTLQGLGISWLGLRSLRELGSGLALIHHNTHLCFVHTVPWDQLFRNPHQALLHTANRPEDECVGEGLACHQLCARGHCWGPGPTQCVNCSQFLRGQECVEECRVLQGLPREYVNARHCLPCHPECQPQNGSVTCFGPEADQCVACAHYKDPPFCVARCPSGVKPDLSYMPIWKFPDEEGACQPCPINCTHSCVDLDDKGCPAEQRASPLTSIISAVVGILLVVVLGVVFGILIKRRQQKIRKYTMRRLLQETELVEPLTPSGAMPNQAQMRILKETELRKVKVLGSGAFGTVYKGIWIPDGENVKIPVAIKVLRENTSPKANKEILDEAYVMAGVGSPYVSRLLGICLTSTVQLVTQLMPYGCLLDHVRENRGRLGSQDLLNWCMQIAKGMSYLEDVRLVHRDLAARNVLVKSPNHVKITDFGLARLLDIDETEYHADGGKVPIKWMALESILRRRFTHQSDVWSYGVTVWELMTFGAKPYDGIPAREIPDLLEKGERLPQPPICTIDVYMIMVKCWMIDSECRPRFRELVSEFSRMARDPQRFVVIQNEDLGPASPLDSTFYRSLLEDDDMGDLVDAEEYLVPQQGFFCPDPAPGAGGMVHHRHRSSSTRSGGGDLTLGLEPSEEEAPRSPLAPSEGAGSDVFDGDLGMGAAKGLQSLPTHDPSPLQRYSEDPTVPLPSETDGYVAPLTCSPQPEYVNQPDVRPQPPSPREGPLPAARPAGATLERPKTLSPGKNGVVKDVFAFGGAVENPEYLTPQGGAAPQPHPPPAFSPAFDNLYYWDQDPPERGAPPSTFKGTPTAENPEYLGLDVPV

One experiment addresses HER2 (Homo sapiens, UniProt P04626). Description: HER2 kinase selectivity assay. It is filed as biochemical. Conditions: Table 4 kinase selectivity; read-out: IC50, Assay 16 HER2. Here is the method: Assays to test compound inhibition of other kinases were preformed using methods that measure the amount of phosphorylation of a biotinylated peptide substrate. Biotinylated peptide substrates were selected from the literature as appropriate for the enzyme being evaluated. The general procedure used to assay for kinase activity is as follows: A kinase reaction mix was prepared in 50 mM Tris-HCl pH=8, 10 mM MgCl2, 0.1 mM NaVO4, 1 mM DTT, 5-10 μM ATP, 0.25-1 μM biotinylated peptide substrate, 0.2-0.8 μCuries per well ^33P-γ-ATP [2000-3000 Ci/mmol]. Assay conditions vary slightly for each protein kinase, for example, insulin receptor kinase requires 10 mM MnCl2 for activity and Calmodulin-dependent protein kinase requires calmodulin and 2 mM CaCl2. The reaction mixture was dispensed into the wells of a streptavidin coated Flashplate and 1 μl drug stock in 100% DMSO was added to a 100 μl reaction volume resulting in a final concentration of 1% DMSO in the reaction. Enzyme was diluted in 50 mM Tris-HCl pH=8.0, 0.1% BSA and added to each well. The reaction was incubated for one hour at 30° C. in the presence of compound. After one hour the reaction mix was aspirated from the plate and the plate was washed with PBS containing 100 mM EDTA. The plate was read on a scintillation counter to determine ^33P-γ-ATP incorporated into the immobilized peptide. Test compounds were assayed in duplicate at 8 concentrations [100 tM, 10 μM, 1 μM, 100 nM, 10 nM, 1 nM, 100 μM, 10 μM]. A maximum and minimum signal for the assay was determined on each plate. The IC50 was calculated from the dose response curve of the percent inhibition of the maximum signal in the assay according to the formula [max signal−background/test compound signal−background (100)=% inhibition] by graphing the percent inhibition against the log concentration of test compound. Known inhibitor compounds appropriate for the kinase being assayed were also included on each plate.
`Clc1cccc(Nc2cncc(-c3cncc(NCCCc4cccnc4)c3)n2)c1` [Cmd 72]: the IC50 came to 9.7 µM. For `Clc1cccc(Nc2cncc(-c3cncc(NCCCn4cncn4)c3)n2)c1` [Cmd 76], the IC50 was 2.24 µM. Turning to `Clc1cccc(Nc2cncc(-c3cncc(NCCCc4ccncc4)c3)n2)c1` [Cmd 71], the IC50 was greater than 100 µM.

`Clc1cccc(Nc2cncc(-c3cncc(NCCCn4cccn4)c3)n2)c1` [Cmd 75]: the IC50 is 3 µM.

For the molecule `Clc1cccc(Nc2cncc(-c3cncc(NCCCN4CCCCC4)c3)n2)c1` [Cmd 73], the IC50 was determined as 7.2 µM.

Another experiment concerns HeLa cervical adenocarcinoma. Description: Cell proliferation assay (14C-thymidine incorporation), HeLa. The experiment is classed as cell-based. As to conditions: Homo sapiens, read-out: Inhibition of cell proliferation IC50. A digest of the protocol: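 Cells plated 24 h, then compound in DMSO added for 24 h before 0.2 μCi/well methyl-14C-thymidine and another 24 h at 37° C., 5% CO2 with drug present. Incorporated 14C-thymidine counted in scintillating plates after PBS washes; DMSO-only wells as controls.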
On the technique in general: Incorporation of labelled thymidine or its analogues reports DNA synthesis.
For `Clc1cccc(Nc2cncc(-c3cncc(NCCCN4CCCCC4)c3)n2)c1` [Cmd 73], the IC50 was determined as 2200 nM. Same read-out and setting: the figure for `CN(C)CCNc1cncc(-c2cncc(Nc3cccc(Cl)c3)n2)c1` [Cmd 33, N′-[5-[6-[(3-chlorophenyl)amino]pyrazinyl]-3-pyridinyl]-N^2,N^2-dimethyl-1,2-ethanediamine] is 2230 nM.

For the next experiment, the system named is SK-OV-3 ovarian adenocarcinoma. As to the kind of experiment: Cell proliferation assay (14C-thymidine incorporation), SK-OV-3. It is filed as cell-based. As to conditions: Homo sapiens, read-out: Inhibition of cell proliferation IC50. As to the method: The ability of a test compound to inhibit the proliferation of cell growth was determined by measuring incorporation of ^14C-labelled thymidine into newly synthesized DNA within the cells. This method was used on cell lines derived from carcinomas originating from several tissues such as HeLa cervical adenocarcinoma (American Type Culture Collection (ATCC), Virginia, Cat. #CCL-2), A375 malignant melanoma (ATCC CRL-1619), SK-OV-3 ovarian adenocarcinoma (ATCC HTB-77) HCT-116 colon carcinoma (CCL-247) and PC-3 prostate adenocarcinoma (ATCC CRL-1435). The method was also used on primary cells such as HUVEC endothelial cells (ATCC CRL-1730). In this way the effect of a compound on cell growth of cells with many different phenotypes can be determined. Cells were trypsinized and counted and 3000-8000 cells were added to each well of a 96-well CytoStar tissue culture treated scintillating microplate (Amersham #RPNQ0160) in complete medium in a volume of 100 μl. Cells were incubated for 24 hours in complete medium at 37° C. in an atmosphere containing 5% CO2.
Next, 1 μl of test compound in 100% DMSO was added to the wells of the plate. DMSO only was added to control wells. Cells were incubated for 24 more hours in complete medium at 37° C. in an atmosphere containing 5% CO2. Methyl ^14C-thymidine 56 mCi/mmol (NEN #NEC568 or Amersham #CFA532) was diluted in complete medium and 0.2 μCi/well was added to each well of the CytoStar plate in a volume of 20 μl. The plate was incubated for 24 hours at 37° C. plus 5% CO2 in drug plus ^14C-thymidine. The contents of the plate were discarded into a ^14C radioactive waste container by inverting the plate and the plate was washed twice with 200 μl PBS. 200 μl of PBS is then added to each well. The top of the plate was sealed with a transparent plate sealer and a white plate backing sealer (Packard #6005199) was applied to the bottom of the plate. The degree of Methyl ^14C-thymidine incorporation was quantified on a Packard Top Count.
Turning to `Clc1cccc(Nc2cncc(-c3cncc(NCCCN4CCCCC4)c3)n2)c1` [Cmd 73], the IC50 worked out at 3.78 µM. Consider `CN(C)CCNc1cncc(-c2cncc(Nc3cccc(Cl)c3)n2)c1` [Cmd 33, N′-[5-[6-[(3-chlorophenyl)amino]pyrazinyl]-3-pyridinyl]-N^2,N^2-dimethyl-1,2-ethanediamine], for which the IC50 is 21.5 µM.
